Assay results: patent publication US20240277658A1, “NLRP3 ACTIVATORS FOR USE IN THE TREATMENT OF INFECTIOUS DISEASES OR CANCER BY ACTIVATING NLRP3 INFLAMMASOME” (ALBERT-LUDWIGS-UNIVERSITÄT FREIBURG, priority 2020, published 2024)
Several values for one entry are separate records, joined by “and”; a condition that tells them apart may be missing. Equal entries are not always repeated. Where two headings read alike, the source gives them in different places. One block for each compound: values may come before it.

Experiments:
[1] = system: BMDCs; test: LDH release (lytic cell death, pyroptosis) from LPS-primed BMDCs; format: cell-based, mouse; details: for Average (% positive control): LDH release; for cytotoxicity at 50 µM / cytotoxicity at 100 µM / cytotoxicity at 25 µM: Mus musculus, BMDC
Outline: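 Mouse BMDCs (7-9 days differentiated, GM-CSF) primed with 50 ng ml^−1 E. coli K12 LPS for 3 hours, then exposed 3 hours to compounds (50 μM unless indicated) or activators (nigericin 5 μM; R837, CL097 100 μM). Lytic death measured as LDH release by colorimetric assay, triplicate wells.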

[2] = molecular target: T1, NLRP3 inflammasome (Mus musculus, UniProt Q8R4B8); test: IL-1β release from LPS-primed BMDCs (ELISA) as readout of NLRP3 inflammasome activation; format: cell-based; details: for Average (% positive control): IL-1β release; for IL-1β: single replicates
T1 construct: endogenous in cells; host or cells: primary mouse bone marrow-derived dendritic cells (BMDCs), LPS-primed
Outline: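 NLRP3 inflammasome activation was read out as IL-1β released into the supernatant, measured by ELISA. Murine BMDCs were primed with LPS (50 ng ml^−1, 3 hours), then incubated with compounds for 3 hours, with each condition run in three technical replicates. Nigericin at 5 μM acted as the positive control activator, and IL-1β release was also expressed as a percentage of that control.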

[3] = system: NLRP3; test: Inflammasome stimulation (IL-1β, LDH release) in BMDCs from NLRP3 knockout or ASC knockout mice; format: cell-based, mouse; details: IL-1β and LDH release
Protocol: (§1) For canonical inflammasome activation BMDCs after 7-9 days of differentiation were harvested and counted with a Neubauer Chamber (Hecht Assistant) and the concentration was set to 1 Mio cells ml^−1. 100 μl cell suspension per well were seeded in 96-well plates. The cells were primed with 50 ng ml^−1 E. coli K12 ultra-pure LPS for 3 hours and subsequently treated with canonical inflammasome activators or experimental compounds for 3 hours if not indicated differently (incubation time FIG. 4D, 5, 7, 8, 11, 13-18: 3 h, FIG. 12: 4 h). Concentrations of the stimuli were as follows if not indicated differently: 5 μM nigericin, 100 μM imiquimod (also known as R837), 100 μM CL097, 100 μM R848, […] poly(dA:dT), 300 μg ml^−1 MSU. If an inhibitor was used before stimuli treatment, the inhibitor was added after 2.5 hours of priming and it was incubated for 30 minutes before inflammasome activation. Inhibitors were used as follows: 3 μM MCC950, 45 mM KCl, 30 μM ebselen (2-Phenyl-1,2-benzoselenazol-3-one), 5 μM cytochalasin D (see FIGS. 8, 11, 12 and 17).
(§2) All inflammasome stimulations were performed in three technical replicates for each condition. Lytic cell death was determined via LDH release (see FIGS. 8, 13-16 and 18), cytokines quantified in cell-free supernatants via ELISA (see FIGS. 4D, 7-9, 11-19) and cell lysates and supernatants analyzed via immunoblotting (see FIGS. 5A and 5B) as previously described in detail (Gross, Olaf, 2012 “Measuring the inflammasome”, Methods in molecular biology, Clifton, N.J., 844, pp. 199-222. Schneider, Katharina S.; Thomas, Christina J.; Groß, Olaf, 2013, “Inflammasome activation and inhibition in primary murine bone marrow-derived cells, and assays for IL-1α, IL-1β, and caspase-1”, Methods in molecular biology, Clifton, N.J., 1040, pp. 117-135).

[4] = molecular target: T1, NLRP3 inflammasome; test: Inflammasome stimulation of BMDCs after pre-incubation with inhibitors (MCC950, KCl, ebselen, cytochalasin D); format: cell-based; details: for dependence of NLRP3 inflammasome activation on potassium efflux from the cell: 50 mM extracellular KCl, FIGS. 11 and 17
Protocol: as §1, with “Inhibitors were used as follows: 3 μM MCC950, 45 mM KCl, 30 μM ebselen (2-Phenyl-1,2-benzoselenazol-3-one), 5 μM cytochalasin D (see FIGS. 8, 11, 12 and 17).” left out
as §2

[5] = system: TLR7/TLR8; details: background statement; cited from earlier work
[6] = system: mitochondrial respiration; details: Groß et al., Immunity 2016; cited from earlier work
[7] = compound 50 μM, positive control nigericin 5 μM
[8] = compound 50 μM, LPS-primed BMDCs
[9] = 100 μM, positive control nigericin 5 μM
[10] = section 1.2, 25 μM, positive control EN22 25 μM
[11] = section 1.2, 50 μM, positive control EN22 25 μM
[12] = section 1.2, 100 μM, positive control EN22 25 μM

T1 sequence (Q8R4B8 whole entry): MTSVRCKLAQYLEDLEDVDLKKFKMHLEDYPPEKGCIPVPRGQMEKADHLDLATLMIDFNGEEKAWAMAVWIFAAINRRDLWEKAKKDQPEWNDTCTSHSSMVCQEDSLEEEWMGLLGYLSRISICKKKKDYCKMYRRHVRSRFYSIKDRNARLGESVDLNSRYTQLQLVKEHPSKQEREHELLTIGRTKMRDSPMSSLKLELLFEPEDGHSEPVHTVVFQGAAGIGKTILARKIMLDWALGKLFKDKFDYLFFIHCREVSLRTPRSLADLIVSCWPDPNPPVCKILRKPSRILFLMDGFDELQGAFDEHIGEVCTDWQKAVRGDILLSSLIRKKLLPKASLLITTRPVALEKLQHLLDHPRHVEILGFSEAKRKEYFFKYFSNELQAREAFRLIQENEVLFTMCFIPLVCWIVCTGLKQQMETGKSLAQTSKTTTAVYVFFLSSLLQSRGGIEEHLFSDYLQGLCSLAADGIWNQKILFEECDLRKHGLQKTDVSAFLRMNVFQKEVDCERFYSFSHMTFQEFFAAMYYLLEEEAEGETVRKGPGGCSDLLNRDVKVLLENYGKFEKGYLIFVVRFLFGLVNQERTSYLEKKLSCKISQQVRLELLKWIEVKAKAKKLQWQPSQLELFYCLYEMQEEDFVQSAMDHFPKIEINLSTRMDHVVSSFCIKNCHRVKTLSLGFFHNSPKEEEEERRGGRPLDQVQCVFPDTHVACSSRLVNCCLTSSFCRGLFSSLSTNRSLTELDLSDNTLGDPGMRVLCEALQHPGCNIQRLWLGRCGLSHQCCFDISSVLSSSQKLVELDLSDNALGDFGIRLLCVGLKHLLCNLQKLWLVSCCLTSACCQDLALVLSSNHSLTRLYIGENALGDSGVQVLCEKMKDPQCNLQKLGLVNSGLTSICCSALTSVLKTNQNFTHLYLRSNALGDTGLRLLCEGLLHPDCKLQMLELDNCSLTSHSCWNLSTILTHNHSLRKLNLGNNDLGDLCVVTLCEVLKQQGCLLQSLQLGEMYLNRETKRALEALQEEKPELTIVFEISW

EC50 for induction of IL-1β, times lower than for imiquimod and CL097 ([2]; BMDCs, FIG. 4D): 10 times
Average (% positive control) [2, 7]: 108.566 % positive control
Average IL-1β [2, 8]: 7.782 ng/mL
dependence of NLRP3 inflammasome activation on potassium efflux from the cell [4]: independently of potassium efflux
effect of the endocytosis inhibitor cytochalasin D on NLRP3 activation ([4]; LPS-primed wild-type BMDCs, FIG. 12): has no effect
effect of the NLRP3-specific inhibitor MCC950 on inflammasome activation by the compound ([4]; wild-type BMDCs, compound 50 μM, FIG. 8): completely suppresses
SMILES: COc1ccccc1NC(=O)NCc1nc(-c2ccc(C(F)(F)F)cc2)no1 [EN21, 1-(2-methoxyphenyl)-3-((3-(4-(trifluoromethyl)phenyl)-1,2,4-oxadiazol-5-yl)methyl)urea]
Average (% positive control) [1, 7]: 68.766 % positive control
cytotoxicity at 50 µM ([1]; compound 50 μM, LPS-primed BMDCs, read-out: Average LDH release (% of max.)): 50.3%
IL-1β [2, 8]: 8.582 ng/mL and 7.428 ng/mL and 8.023 ng/mL and 6.613 ng/mL and 8.352 ng/mL and 7.696 ng/mL
characteristics of inflammasome activation in cells isolated from NLRP3 knockout mice [3]: do not occur

SMILES: CCOCc1nc2c([nH]1)c(N)nc1ccccc12 [CL097, reference compound]
Average LDH release (% of max.) ([1]; 100 μM, LPS-primed BMDCs): 68.096 % of max.
Average (% positive control) [1, 9]: 93.083 % positive control
LDH release (% of max.) ([1]; single replicates, 100 μM, LPS-primed BMDCs): 56.511 % of max. and 69.145 % of max. and 62.611 % of max. and 76.051 % of max. and 68.018 % of max. and 76.242 % of max.
Average IL-1β ([2]; 100 μM, LPS-primed BMDCs): 8.570 ng/mL
Average (% positive control) [2, 9]: 119.560 % positive control
IL-1β ([2]; 100 μM, LPS-primed BMDCs): 7.355 ng/mL and 8.020 ng/mL and 8.660 ng/mL and 8.522 ng/mL and 9.540 ng/mL and 9.324 ng/mL
activation of toll-like receptor-7 (TLR7) and/or TLR8 [5]: activate
inhibition of cellular respiration (mitochondrial electron transport chain) [6]: inhibit cellular respiration

Average IL-1β ([2]; 100 μM, LPS-primed BMDCs): 2.376 ng/mL
Average (% positive control) [2, 9]: 33.144 % positive control
SMILES: CC(C)Cn1cnc2c(N)nc3ccccc3c21 [imiquimod, reference compound]
Average (% positive control) [1, 9]: 35.494 % positive control
cytotoxicity at 100 µM ([1]; 100 μM, LPS-primed BMDCs, read-out: Average LDH release (% of max.)): 26%
IL-1β ([2]; 100 μM, LPS-primed BMDCs, listed as R837): 5.472 ng/mL and 4.151 ng/mL and 1.552 ng/mL and 1.212 ng/mL and 0.958 ng/mL and 0.911 ng/mL
activation of toll-like receptor-7 (TLR7) and/or TLR8 [5]: activate
inhibition of cellular respiration (mitochondrial electron transport chain) [6]: inhibit cellular respiration

Average IL-1β ([2]; section 1.2, 25 μM): 4.696 ng/mL
Average IL-1β ([2]; section 1.2, 50 μM): 5.026 ng/mL
Average IL-1β ([2]; section 1.2, 100 μM): 5.084 ng/mL
Average (% positive control) [2, 10]: 93.430 % positive control
Average (% positive control) [2, 11]: 100.007 % positive control
Average (% positive control) [2, 12]: 101.159 % positive control
dependence of NLRP3 inflammasome activation on potassium efflux from the cell [4]: independently of potassium efflux
SMILES: O=C(Nc1ccc2ncccc2c1)Nc1ccc2ncccc2c1 [EN-A, 1,3-di(quinolin-6-yl)urea]
cytotoxicity at 25 µM ([1]; section 1.2, 25 μM, read-out: Average LDH release (% of max.)): 33.1%
cytotoxicity at 50 µM ([1]; section 1.2, 50 μM, read-out: Average LDH release (% of max.)): 32.4%
cytotoxicity at 100 µM ([1]; section 1.2, 100 μM, read-out: Average LDH release (% of max.)): 33%
cytotoxicity at 25 µM ([1]; section 1.2, single replicates, 25 μM, read-out: LDH release (% of max.)): 33.7%
cytotoxicity at 50 µM ([1]; section 1.2, single replicates, 50 μM, read-out: LDH release (% of max.)): 32.1%
cytotoxicity at 100 µM ([1]; section 1.2, single replicates, 100 μM, read-out: LDH release (% of max.)): 34.8%
Average (% positive control) [1, 10]: 110.581 % positive control
Average (% positive control) [1, 11]: 108.112 % positive control
Average (% positive control) [1, 12]: 110.157 % positive control
IL-1β ([2]; section 1.2, 25 μM): 5.256 ng/mL and 4.576 ng/mL and 4.256 ng/mL
IL-1β ([2]; section 1.2, 50 μM): 4.819 ng/mL and 5.538 ng/mL and 4.722 ng/mL
IL-1β ([2]; section 1.2, 100 μM): 5.256 ng/mL and 5.328 ng/mL and 4.669 ng/mL
characteristics of inflammasome activation in cells isolated from NLRP3 knockout mice [3]: do not occur
